A word on the EC50: it is the midpoint of the concentration-response curve.

The subject of the first assay is NQO1 specific enzyme activity in BEAS-2B cells (marker for NRF2 activation). Briefly: BEAS-2B NQO1 MTT Assay. It counts as cell-based. Conditions: Homo sapiens, BEAS-2B, 48 h, NQO1 specific activity induction, 48 hours with compound. Put shortly:
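BEAS-2B cells were plated at 250,000 cells/mL and treated after overnight culture with compound for 48 h at 37° C, 5% CO2. NQO1 activity in crude lysates was read kinetically as MTT reduction at 570 nm over 30 min. pEC50 comes from ΔOD/min versus log concentration with a 3-parameter fit.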
Take `CC[C@@H]1CN(Cc2cc([C@@H](CC(=O)O)c3ccc4c(nnn4CC)c3C)sc2Cl)S(=O)(=O)c2cnccc2O1` [Example 1, (S)-3-(5-Chloro-4-(((R)-4-ethyl-1,1-dioxido-3,4-dihydro-2H-pyrido[4,3-b][1,4,5]oxathiazepin-2-yl)methyl)thiophen-2-yl)-3-(1-ethyl-4-methyl-1H-benzo[d][1,2,3]triazol-5-yl)propanoic acid]: the EC50 was in the range of 100 to 1000 nM.

Take `CC[C@H]1Cc2ncccc2S(=O)(=O)N(Cc2nc([C@@H](c3ccc4c(nnn4CC)c3C)C(C)(C)C(=O)Nc3cccnc3)sc2C)C1` [Example 34, (S)-3-(4-(((S)-4-Ethyl-1,1-dioxido-4,5-dihydropyrido[2,3-f][1,2]thiazepin-2(3H)-yl)methyl)-5-methylthiazol-2-yl)-3-(1-ethyl-4-methyl-1H-benzo[d][1,2,3]triazol-5-yl)-2,2-dimethyl-N-(pyridin-3-yl)propanamide]: the EC50 lay in the range of 100 to 1000 nM.

As to `CC[C@@H]1CN(Cc2cc([C@@H](c3ccc4c(nnn4CC)c3C)C(C)(C)C(=O)O)sc2C)S(=O)(=O)c2cnccc2O1` [Example 9, (S)-3-(4-(((R)-4-Ethyl-1,1-dioxido-3,4-dihydro-2H-pyrido[4,3-b][1,4,5]oxathiazepin-2-yl)methyl)-5-methylthiophen-2-yl)-3-(1-ethyl-4-methyl-1H-benzo[d][1,2,3]triazol-5-yl)-2,2-dimethylpropanoic Acid], the EC50 was below 1 nM.

As to `CC[C@@H]1CN(Cc2cc([C@H](CCc3cn(CC)nn3)C(C)(C)C(=O)O)sc2C)S(=O)(=O)c2ccccc2O1` [Example 64, (R)-3-(4-(((R)-4-Ethyl-1,1-dioxido-3,4-dihydro-2H-benzo[b][1,4,5]oxathiazepin-2-yl)methyl)-5-methylthiophen-2-yl)-5-(1-ethyl-1H-1,2,3-triazol-4-yl)-2,2-dimethylpentanoic Acid], the EC50 was below 1 nM.

For the molecule `CC[C@@H]1CN(Cc2cc([C@H](c3ccc4c(nnn4CC)c3C)C(C)(C)C(=O)O)sc2Cl)S(=O)(=O)c2cnccc2O1` [Example 36, (R)-3-(5-Chloro-4-(((R)-4-ethyl-1,1-dioxido-3,4-dihydro-2H-pyrido[4,3-b][1,4,5]oxathiazepin-2-yl)methyl)thiophen-2-yl)-3-(1-ethyl-4-methyl-1H-benzo[d][1,2,3]triazol-5-yl)-2,2-dimethylpropanoic Acid], the EC50 fell in the range of 100 to 1000 nM.

In the case of `CCn1nnc2c(C)c([C@H](c3cc(CN4C[C@@H](C)Cc5ccccc5S4(=O)=O)c(C)s3)C(C)(C)C(N)=O)ccc21` [Example 39, (S)-3-(1-Ethyl-4-methyl-1H-benzo[d][1,2,3]triazol-5-yl)-2,2-dimethyl-3-(5-methyl-4-(((S)-4-methyl-1,1-dioxido-4,5-dihydrobenzo[f][1,2]thiazepin-2(3H)-yl)methyl)thiophen-2-yl)propanamide], the concentration giving a half-maximal response (EC50) was 10 to 100 nM.

Consider `CC[C@@H]1CN(Cc2cc([C@H](CC(=O)O)c3ccc4c(nnn4CC)c3C)sc2Cl)S(=O)(=O)c2cccnc2O1` [Example 6, (R)-3-(5-Chloro-4-(((R)-4-ethyl-1,1-dioxido-3,4-dihydro-2H-pyrido[2,3-b][1,4,5]oxathiazepin-2-yl)methyl)thiophen-2-yl)-3-(1-ethyl-4-methyl-1H-benzo[d][1,2,3]triazol-5-yl)propanoic acid], for which the half-maximal effective concentration (EC50) lay within 10 to 100 nM.

As for `CC[C@@H]1CN(Cc2cc([C@@H](CC(=O)O)c3ccc4c(nnn4CC)c3C)sc2Cl)S(=O)(=O)c2cccnc2O1` [Example 2, (S)-3-(5-Chloro-4-(((R)-4-ethyl-1,1-dioxido-3,4-dihydro-2H-pyrido[2,3-b][1,4,5]oxathiazepin-2-yl)methyl)thiophen-2-yl)-3-(1-ethyl-4-methyl-1H-benzo[d][1,2,3]triazol-5-yl)propanoic acid], the 50% effective concentration (EC50) lay within 1000 to 10000 nM.

As for `CC[C@@H]1CN(Cc2cc([C@H](c3ccc4c(nnn4CC)c3C)C(C)(C)C(=O)O)sc2Cl)S(=O)(=O)c2ccccc2O1` [Example 4, (R)-3-(5-Chloro-4-(((R)-4-ethyl-1,1-dioxido-3,4-dihydro-2H-benzo[b][1,4,5]oxathiazepin-2-yl)methyl)thiophen-2-yl)-3-(1-ethyl-4-methyl-1H-benzo[d][1,2,3]triazol-5-yl)-2,2-dimethylpropanoic acid], the EC50 fell in the range of 100 to 1000 nM.

Regarding `CCn1nnc2c(C)c([C@H](c3cc(CN4C[C@H](C)Cc5ncccc5S4(=O)=O)c(C)s3)C(C)(C)C(=O)O)ccc21` [Example 16, (S)-3-(1-Ethyl-4-methyl-1H-benzo[d][1,2,3]triazol-5-yl)-2,2-dimethyl-3-(5-methyl-4-(((R)-4-methyl-1,1-dioxido-4,5-dihydropyrido[2,3-f][1,2]thiazepin-2(3H)-yl)methyl)thiophen-2-yl)propanoic Acid], the concentration giving a half-maximal response (EC50) lay in the range of 1 to 10 nM.

As for `CCC1CCN(Cc2nccn2Cc2cc([C@@H](c3ccc4c(nnn4CC)c3C)C(C)(C)C(=O)O)sc2C)CC1` [Example 12, (S)-3-(1-Ethyl-4-methyl-1H-benzo[d][1,2,3]triazol-5-yl)-3-(4-((2-((4-ethylpiperidin-1-yl)methyl)-1H-imidazol-1-yl)methyl)-5-methylthiophen-2-yl)-2,2-dimethylpropanoic acid], the half-maximal effective concentration (EC50) lay within 1 to 10 nM.

As to `CC[C@@H]1CN(Cc2cc([C@@H](c3ccc4c(nnn4CC)c3C)C(C)(C)C(=O)O)sc2Cl)S(=O)(=O)c2ccccc2O1` [Example 3, (S)-3-(5-Chloro-4-(((R)-4-ethyl-1,1-dioxido-3,4-dihydro-2H-benzo[b][1,4,5]oxathiazepin-2-yl)methyl)thiophen-2-yl)-3-(1-ethyl-4-methyl-1H-benzo[d][1,2,3]triazol-5-yl)-2,2-dimethylpropanoic acid], the EC50 is below 1 nM.

For the molecule `CCn1nnc2c(C)c([C@H](c3cc(CN4CC(=O)N(C)CC(C)(C)C4)c(C)s3)C(C)(C)C(=O)O)ccc21` [Example 15, (S)-3-(1-Ethyl-4-methyl-1H-benzo[d][1,2,3]triazol-5-yl)-2,2-dimethyl-3-(5-methyl-4-((4,6,6-trimethyl-3-oxo-1,4-diazepan-1-yl)methyl)thiophen-2-yl)propanoic Acid], the EC50 fell in the range of 1 to 10 nM.

As for `CC[C@@H]1CN(Cc2cc([C@H](CC(=O)O)c3ccc4c(nnn4CC)c3C)sc2C)S(=O)(=O)c2cccnc2O1` [Example 46, (R)-3-(4-(((R)-4-Ethyl-1,1-dioxido-3,4-dihydro-2H-pyrido[2,3-b][1,4,5]oxathiazepin-2-yl)methyl)-5-methylthiophen-2-yl)-3-(1-ethyl-4-methyl-1H-benzo[d][1,2,3]triazol-5-yl)propanoic Acid], the EC50 was in the range of 10 to 100 nM.

In the case of `CC[C@@H]1CN(Cc2cc([C@@H](c3ccc4c(nnn4CC)c3C)C(C)(C)C(=O)O)sc2C)S(=O)(=O)c2ccccc2O1` [Example 10, (S)-3-(4-(((R)-4-Ethyl-1,1-dioxido-3,4-dihydro-2H-benzo[b][1,4,5]oxathiazepin-2-yl)methyl)-5-methylthiophen-2-yl)-3-(1-ethyl-4-methyl-1H-benzo[d][1,2,3]triazol-5-yl)-2,2-dimethylpropanoic Acid], the EC50 is below 1 nM.

The next assay deals with rats in a cerebral ischemia-reperfusion model.
Test: not given
Conditions: cited from earlier work.
For the molecule `CC(C)(C)c1cc(O)ccc1O` [tBHQ, tert-butylhydroquinone], the cortical damage entry is given as “reduced cortical damage”.

For another assay, the system named is NRF2 wild-type and KO mice.
Test: not given
The settings on record: after administration, NRF2 wild-type vs KO mice; cited from earlier work.
For the molecule `CC(C)(C)c1cc(O)ccc1O` [tBHQ, tert-butylhydroquinone], the cortical glutathione levels result is given as “increased in NRF2 wild-type but not KO mice”.

In a further assay the test system is rats on a choline-deficient L-amino acid-defined diet.
Test: not given
The settings on record: cited from earlier work.
As to `O=C(NCc1ccccn1)Nc1nnc(-c2ccco2)o1` [NK-252], the “progression of histologic abnormalities, especially hepatic fibrosis” value is reported as “significantly attenuated progression”.

Regarding `Cc1c(-c2cnccn2)ssc1=S` [oltipraz], the “progression of histologic abnormalities, especially hepatic fibrosis” value is “significantly attenuated progression”.

A further assay relates to COPD macrophages and alveolar macrophages from cigarette smoke-exposed mice.
Test: not given
Conditions: COPD macrophages and alveolar macrophages from cigarette smoke-exposed mice; cited from earlier work.
Consider `C[S+]([O-])CCCCN=C=S` (stereo not drawn) [Sulforaphane], for which the “expression of Macrophage Receptor with Collagenous structure (MARCO)” value was “increases the expression of Macrophage Receptor with Collagenous structure (MARCO)”.

Staying with this assay, now noted: ex vivo and in vivo; cited from earlier work.
In the case of `C[S+]([O-])CCCCN=C=S` (stereo not drawn) [Sulforaphane], the “bacterial phagocytosis (Pseudomonas aeruginosa, non-typable Haemophilus influenzae) and bacterial clearance” value is given as “improving in these cells bacterial phagocytosis”.

Values taken from patent US11117905B2, “Bisaryl heterocycles as NRF2 activators” (GLAXOSMITHKLINE INTELLECTUAL PROPERTY DEVELOPMENT LIMITED, priority 2016, dated 2021).
